Results published in the supplement of paper PMC5908809.

Columns and labels:
[1] = tested on: KHYG-1 (IL-2 2.5 ng/mL); assay: percent inhibition of viability; higher = more inhibition; conditions: 72 h
[2] = tested on: DERL-7 (IL-2 2.5 ng/mL); assay: as above; conditions: 72 h
[3] = tested on: normal primary NK cells, pool 3 (3 donors) (IL-2 2.5 ng/mL); assay: as above; conditions: 72 h
[4] = tested on: normal primary NK cells, pool 1 (3 donors) (IL-2 2.5 ng/mL); assay: as above; conditions: 72 h
[5] = tested on: KAI3 (IL-2 2.5 ng/mL); assay: as above; conditions: 72 h
[6] = tested on: NKL (IL-2 2.5 ng/mL); assay: as above; conditions: 72 h
[7] = tested on: IMC-1 (IL-2 20 ng/mL); assay: as above; conditions: 72 h
[8] = tested on: normal primary NK cells, pool 1 (3 donors), resting (IL-2 0 ng/mL); assay: as above; conditions: 72 h
[9] = tested on: NK-YS (IL-2 2.5 ng/mL); assay: as above; conditions: 72 h
[10] = tested on: SNK-6 (IL-2 2.5 ng/mL); assay: as above; conditions: 72 h
[11] = tested on: normal primary NK cells, pool 2 (3 donors) (IL-2 2.5 ng/mL); assay: as above; conditions: 72 h
[12] = tested on: NK-92 (IL-2 2.5 ng/mL); assay: as above; conditions: 72 h
[13] = tested on: YT (IL-2 2.5 ng/mL); assay: as above; conditions: 72 h
[14] = tested on: normal NK cells expanded with K562-aAPC; assay: as above; conditions: 72 h, IL-2 2.5 ng/mL
Method: (§1)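 Drug sensitivity and resistance testing on K562-aAPC-expanded normal NK cells: 5 concentrations (10-fold steps over a 10,000-fold range), 72 h at 37 °C, viability by CellTiter-Glo normalised to DMSO and benzethonium chloride controls; DSS from the fitted curve.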

[15] = tested on: KHYG-1 (IL-2 2.5 ng/mL); assay: drug sensitivity score (DSS) (DSS units); higher = more sensitive; extreme values may be limits of the assay; conditions: 72 h
[16] = tested on: DERL-7 (IL-2 2.5 ng/mL); assay: as above; conditions: 72 h
[17] = tested on: normal primary NK cells, pool 3 (3 donors) (IL-2 2.5 ng/mL); assay: as above; conditions: 72 h
[18] = tested on: normal primary NK cells, pool 1 (3 donors) (IL-2 2.5 ng/mL); assay: as above; conditions: 72 h
[19] = tested on: KAI3 (IL-2 2.5 ng/mL); assay: as above; conditions: 72 h
[20] = tested on: NKL (IL-2 2.5 ng/mL); assay: as above; conditions: 72 h
[21] = tested on: IMC-1 (IL-2 20 ng/mL); assay: as above; conditions: 72 h
[22] = tested on: normal primary NK cells, pool 1 (3 donors), resting (IL-2 0 ng/mL); assay: as above; conditions: 72 h
[23] = tested on: NK-YS (IL-2 2.5 ng/mL); assay: as above; conditions: 72 h
[24] = tested on: SNK-6 (IL-2 2.5 ng/mL); assay: as above; conditions: 72 h
[25] = tested on: normal primary NK cells, pool 2 (3 donors) (IL-2 2.5 ng/mL); assay: as above; conditions: 72 h
[26] = tested on: NK-92 (IL-2 2.5 ng/mL); assay: as above; conditions: 72 h
[27] = tested on: YT (IL-2 2.5 ng/mL); assay: as above; conditions: 72 h
[28] = tested on: normal NK cells expanded with K562-aAPC; assay: as above; conditions: 72 h; IL-2 2.5 ng/mL
Method: as §1

C[C@]1(O)C[C@@H](c2nc(-c3ccc4ccc(-c5ccccc5)nc4c3)c3c(N)nccn32)C1 [Linsitinib] (max concentration tested 10000 nM)
percent inhibition of viability [%]
Conditions | 1 nM | 10 nM | 100 nM | 1000 nM | 10000 nM
[1] | -4.45 | -3.38 | -4.33 | 0.38 | 8.9
[2] | -5.4 | 6.82 | -0.65 | -2.2 | 7.81
[3] | -0.78 | 1.11 | 5.04 | -1.16 | 15.8
[4] | -5.96 | -9.98 | -7.82 | -7.33 | 27.3
[5] | 6.27 | -1.21 | -4.49 | -3.92 | -0.2
[6] | -9.46 | -15.4 | -8.54 | -9.73 | 12.4
[7] | -3.5 | -2.97 | -5.08 | -2.76 | -3.58
[8] | -20.4 | -14.2 | 17.7 | 8.71 | 42.2
[9] | -6.48 | -5.34 | -2.18 | 3.9 | 7.93
[10] | 5.21 | -12.6 | -15.2 | -16.7 | -11
[11] | -2.53 | 1.1 | -5.12 | 3.42 | 27.6
[12] | 2.33 | 5.73 | 13 | 14.5 | 29.1
[13] | 1.95 | 2.48 | 2.32 | 5.99 | 17.4
[14] | -3.84 | -4.8 | -1.86 | -1.74 | 2.14

Conditions | drug sensitivity score
[15] | 0
[16] | 0
[17] | 0.23
[18] | 0.79
[19] | 0
[20] | 0.01
[21] | 0
[22] | 3.19
[23] | 0
[24] | 0
[25] | 1.67
[26] | 3.33
[27] | 0.72
[28] | 0

CCCC(CCC)C(=O)O [Valproic acid] (max concentration tested 1000000 nM)
percent inhibition of viability [%]
Conditions | 100 nM | 1000 nM | 10000 nM | 100000 nM | 1000000 nM
[3] | -5.69 | -8.36 | -12.2 | -3.8 | 14.2
[7] | -0.33 | -1.48 | -8.1 | -1.23 | 17.4
[11] | -3.47 | -9.08 | -3.52 | 0.62 | 31.7
[14] | -5.06 | -5.78 | -6.14 | 2.07 | 35.9

Conditions | drug sensitivity score
[17] | 0.1
[21] | 0.34
[25] | 1.5
[28] | 2

Cc1ccc(-c2cc(C(F)(F)F)nn2-c2ccc(S(N)(=O)=O)cc2)cc1 [Celecoxib] (max concentration tested 10000 nM)
percent inhibition of viability [%]
Conditions | 1 nM | 10 nM | 100 nM | 1000 nM | 10000 nM
[1] | -2.14 | 0.22 | 3.78 | 5.35 | 11.5
[2] | -4.04 | -0.66 | 2.98 | 0.77 | 20.1
[3] | -11.6 | 1.86 | 9.55 | -0.12 | 12.8
[4] | -3.14 | -6.46 | -5.04 | -13.6 | 17.4
[5] | -0.1 | 5.86 | 3.78 | 10.9 | 16.6
[6] | 12.9 | 8.06 | 8.99 | 8.49 | 13.6
[7] | -1.63 | 4.12 | 3.17 | 8.92 | 21.4
[8] | -5.64 | -19.9 | -6.8 | -14.5 | 38.8
[9] | 3.79 | 1.41 | 5.74 | 5.5 | 17.7
[10] | 7.19 | 19.3 | 11.5 | 33.2 | 29.1
[11] | -5.46 | -3.07 | 8.51 | -1.27 | 21.4
[12] | -11.1 | 9.29 | 13.9 | 6.91 | 36.8
[13] | 6.8 | 6.48 | 10.3 | 10.8 | 21.6
[14] | 5.69 | 5.19 | 8.1 | 13.1 | 11.9

Conditions | drug sensitivity score
[15] | 0
[16] | 0.68
[17] | 0.08
[18] | 0.17
[19] | 0.73
[20] | 0
[21] | 1.17
[22] | 1.32
[23] | 0.44
[24] | 7.44
[25] | 0.61
[26] | 2.8
[27] | 1.78
[28] | 0.46

O=C(Nc1cccnc1)N1CCC(Cc2cccc(Oc3ccc(C(F)(F)F)cn3)c2)CC1 [PF-3845] (max concentration tested 10000 nM)
percent inhibition of viability [%]
Conditions | 1 nM | 10 nM | 100 nM | 1000 nM | 10000 nM
[1] | -4.25 | -6.89 | -4.44 | 4.55 | 60.7
[2] | 3.63 | -4.44 | 5.89 | 0.51 | 46.1
[3] | -11.4 | -5.5 | -11.2 | -10.4 | 19.9
[4] | -3.8 | -8.73 | -11.2 | 2.66 | 64.3
[5] | -1.12 | -6.82 | 4.46 | 0.3 | 25
[6] | -5.58 | -15.9 | -8.48 | 16.5 | 66.2
[7] | 0.9 | -0.47 | 4.7 | 13.8 | 26.2
[8] | -8.45 | -13.6 | -17.7 | -4.4 | 74
[9] | 4.37 | -3.27 | 0.47 | 10.5 | 75
[10] | -10 | -1.35 | -9.77 | -1.56 | 25.3
[11] | -12.4 | 3.71 | -1.82 | -3.09 | 43.9
[12] | -1.76 | -21.3 | -8.96 | 4.25 | 35.6
[13] | -2.27 | -9.8 | 1.6 | 5.87 | 44.7
[14] | -4.39 | -6.94 | -8.54 | -9.15 | -10

Conditions | drug sensitivity score
[15] | 4
[16] | 2.45
[17] | 0.32
[18] | 3.87
[19] | 0.99
[20] | 6.2
[21] | 2.22
[22] | 3.74
[23] | 5.91
[24] | 0.86
[25] | 2
[26] | 2.38
[27] | 3.29
[28] | 0

Cc1ccccc1C(C(=O)NC1CCCCC1)N(C(=O)Cn1ccnc1C)c1cccc(F)c1 (stereo not given) [AGI-5198] (max concentration tested 10000 nM)
percent inhibition of viability [%]
Conditions | 1 nM | 10 nM | 100 nM | 1000 nM | 10000 nM
[1] | 2.51 | 1.12 | 2.9 | 0.31 | 10.8
[2] | -2.01 | 0.12 | 2.86 | 4.19 | 4.9
[3] | -10 | -4.39 | -0.6 | 2.48 | 5.96
[4] | -4.32 | -10.5 | -2.82 | -8.59 | -1.32
[5] | 1.08 | -2.21 | 4.4 | -7.93 | 5.53
[6] | -11.8 | 5.55 | 4.44 | 6.62 | 15.3
[7] | -3.01 | 0.83 | 3.36 | -0.42 | 6.36
[8] | 7.51 | -9.12 | -0.43 | -14.1 | -4.43
[9] | 1.52 | -1.9 | 7.02 | -2.36 | 15.5
[10] | 8.4 | 14.1 | -2.27 | 3.58 | 14.7
[11] | -13.6 | -0.73 | 3.47 | 6.75 | 9.8
[12] | -13.7 | -5.86 | 2.38 | -10.7 | 12.8
[13] | 0.66 | 2.4 | 5.93 | 3.4 | 10.8
[14] | -2.75 | -1.08 | -4.23 | 1.75 | 3.84

Conditions | drug sensitivity score
[15] | 0
[16] | 0
[17] | 0
[18] | 0
[19] | 0
[20] | 0.33
[21] | 0
[22] | 0
[23] | 0.18
[24] | 0.54
[25] | 0
[26] | 0.01
[27] | 0
[28] | 0
